From patent publication US9084779B2, “Conjugates of nitroimidazoles and their use as chemotherapeutic agents” (The Johns Hopkins University, priority 2011, dated 2015)
In brackets after ≈: the same amount, converted by molar mass. Like-named read-outs stand apart in the source and are kept apart here.

Assays:
[1] = system: HT29 human colorectal carcinoma cells; experiment: Cell viability by plating efficiency (colony formation after replating); assay type: cell-based; conditions: 40 μM, 48 h, diluted 10,000 fold and replated, colonies stained eight days later
Protocol: FIG. 6 depicts the plating efficiency of HT29 human colorectal carcinoma cells after treatment with DMSO, 40μ M3n and 40μ M3N-PEG-2NI. HT29 cells were treated for 48 h with 40 μM M3N, 40 μM M3N-PEG-2NI or the DMSO vehicle. At the end of the treatment period, the cells were diluted 10,000 fold and replated. Eight days later colonies were stained with methylene blue.
For the further assessment of cell viability by plating efficiency, cells (2×10^6 cells/100 mm dish) from the human colorectal carcinoma cell line HT29 were treated for 48 hours with 40 μM M3N, 40 μM M3N-PEG-2NI or the DMSO vehicle. At the end of the treatment period, the cells from each dish were released by trypsinization, diluted 10,000 fold and replated into new 100 mm dishes. Eight days later colonies were stained with 0.25% methylene blue in 50% ethanol

[2] = Determination of water solubility by UV absorbance of a saturated solution; assay type: physicochemical; conditions: thermodynamic from solid; water, saturated solution, sonicated at 25° C., stirred at room temperature 1.0 h, filtered
Protocol: The aqueous solubility of all eight compounds was assessed by using a technique involving measurement of their UV absorbance^29.
Determination of Water Solubility of Compounds 7a-d and 10a-d. A saturated solution was prepared by addition of a test compound (7a-d and 10a-d; ca. 1.00 mg) to water (1.00 mL), which was sonicated at 25° C. for 5.0 min and stirring at room temperature for an additional 1.0 h. After filtration with Millipore filters (0.45-μm-pore-size polyvinylidene fluoride), the supernatant was analyzed by UV spectroscopy with concentration determined from absorbance, standardized against calibration data. Standard curves for each compound were obtained by plotting absorbance against concentration. The concentration range of the standard solutions was 1.0-10 μg/mL. For all standards, their curves were linear with γ>0.996.

[3] = system: Hep3B human hepatocellular carcinoma cells; experiment: Hypoxia targeting assay, 5-h exposure then 5 days growth, MTS; assay type: cell-based; conditions: for IC50: Homo sapiens
Protocol: Hypoxia targeting assay. Hep3B cells, plated in 96-well plates at a density of 3.0×10^3 cells/well, were incubated overnight and then treated with the test compounds for 5.0 hours at under hypoxic (1% O2) or normoxic (21% O2) conditions. Exposure of cells to hypoxia was carried out in a PROOX C-Chamber with O2 and CO2 levels modulated by a PROOX Model C21 Controller (BioSpherix). At the end of the treatment period, the wells were washed with phosphate buffered saline (PBS) and fresh compound-free media was added. The cells were cultured for an additional 5 days under normoxic conditions and then assayed for cell proliferation using the MTS assay.
Hypoxia targeting. Nitroimidazoles are converted to reactive compounds in hypoxic cells. Therefore it is of importance to compare the antiproliferative activities of the nitroimidazole conjugated compounds against Hep3B cells under normoxic and hypoxic conditions. In these experiments, Hep3B cells in culture were treated with each of the conjugated compounds 7c-d, 10c-d, or the parent compounds 3 or 8 for a 5.0-hour period under normoxic (21% O2) or hypoxic (1.0% O2) conditions. After treatment, the cells were returned to normal conditions and assayed for proliferation after 5 days of additional growth. […] The ratio between the IC50 values for each drug under normoxic versus hypoxic culture conditions was computed and used as a measure of the relative increase in potency.

[4] = system: subcutaneous LNCaP prostate cancer cell explants; experiment: Immunofluorescence analysis of 2-nitroimidazole induced protein adducts in mouse tumor explants; assay type: in vivo, nude mice; conditions: daily intravenous tail vein injection for three weeks
Protocol: Immunofluorescence analysis of 2-nitroimidazole induced protein adducts in mouse tumor explants. Nude mice with subcutaneous LNCaP prostate cancer cell explants were administered Hydroxyprobe-1, M3N or M3N-PEG-2NI for three weeks by daily intravenous tail vein injection with an additional injection 3 hours prior to euthanization. Tumors were removed from the euthanized mice by dissection and incubated in 30% sucrose/PBS overnight at 4° C. Excess sucrose was removed and the tissue was incubated in 30% sucrose/PBS:OCT (1:1) for 1 hour at room temperature. Afterward the tissue was frozen in 100% OCT. Frozen sections of […] were prepared and fixed in 4% PFA/PBS for 1 hour at room temperature. The sections were blocked overnight at 4° C. with 5% goat serum/PBS or at room temperature for 1 hour and then incubated with Hydroxyprobe-1 rabbit antiserum (1:200) overnight at 4° C. After three washes with PBS, the secondary antibody, mouse anti rabbit-FITC (1:1000) was added for 1 hour at room temperature. The sections were mounted using Vectashield and fluorescently imaged.

**Q.** Which “Ability of HT29 cells to replicate after treatment (plating efficiency)” value [1] does the source give for `COc1ccc(C[C@H](C)[C@H](C)Cc2ccc(OC)c(OCCOCCOCCOCCn3ccnc3[N+](=O)[O-])c2)cc1OC` (racemic) [Compound 7d, (±)-(2R,3S)-4-(3,4-Dimethoxyphenyl)-1-[4-methoxy-3-[12-(2-nitro-1H-imidazol-1-yl)-1,4,7,10-tetraoxadodecanyl]phenyl]-2,3-dimethylbutane] here?
**A.** unable to replicate

**Q.** What about the solubility at 1 h [2] of the same compound?
**A.** 13.2 µg/mL (≈ 21.5 µM)

**Q.** And the IC50 ([3]; hypoxic (1.0% O2), then 5 days normoxic growth, read-out: IC50 Hypoxic (H))?
**A.** 53.2 ± 8 µM

**Q.** And the IC50 ([3]; normoxic (21% O2), then 5 days growth, read-out: IC50 Normoxic (N))?
**A.** 60.8 ± 9.4 µM

**Q.** What about the “Ratio IC50 (N)/IC50 (H)” value ([3]; normoxic versus hypoxic) of the same compound?
**A.** 1.14

**Q.** And the “Protein adducts in tumor sections by immunofluorescence” value [4]?
**A.** Protein-adducts were also found
